Experimental data reported in US20250115598A1 (Anaxis Pharma Pty Ltd, priority 2021, published 2025).

Tests used:
[1] = target: human MLKL (full length) (Homo sapiens (Human), UniProt Q8NB16); assay: KINOMEscan binding assay, human MLKL (full length); details: hMLKL, Table 25; read-out: MLKL (KD)
Method in brief: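 Tagged kinase + immobilized ligand beads + compound; eluted kinase quantified by qPCR. Kinase source: T7 phage lysate (BL21-derived E. coli, 32 °C) or HEK-293 with DNA tag. 11-pt 3-fold series, 1% DMSO, top 30,000 nM (most). Hill fit, slope −1 → Kd.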

[2] = tested on: Immortalised Mouse Dermal Fibroblasts (MDFs); assay: Cellular assay: inhibition of TSI induced necroptosis, CellTitre-Glo viability; details: Mus musculus, Fibroblast; MDF, 3 hours TSI cocktail, Table 27; read-out: Inhibition of TSI-induced necroptosis (IC50 cell-based assay) in MDF
Method in brief: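 Immortalised mouse dermal fibroblasts (2200 cells/well) pretreated 30 min with compound, 10-point 1:3 series from 36 μM, 0.3% DMSO. Then 3 h at 37° C. with TNF (100 ng/ml), Smac mimetic (500 nM) and IDN-6556 (10 μM). CellTiter-Glo luminescence normalised to DMSO (100%) and DMSO+TSI (0%); IC50 from 4-parameter logistic fit.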

[3] = target: endogenous MLKL in U937 (Homo sapiens (Human), UniProt Q8NB16); assay: Degradation assay: endogenous MLKL in U937 (western blot); details: U937, 24 h incubation, read-out: Degradation of endogenous MLKL in U937 (DC50 cell-based assay)
Chain of endogenous MLKL in U937 (Q8NB16 whole entry): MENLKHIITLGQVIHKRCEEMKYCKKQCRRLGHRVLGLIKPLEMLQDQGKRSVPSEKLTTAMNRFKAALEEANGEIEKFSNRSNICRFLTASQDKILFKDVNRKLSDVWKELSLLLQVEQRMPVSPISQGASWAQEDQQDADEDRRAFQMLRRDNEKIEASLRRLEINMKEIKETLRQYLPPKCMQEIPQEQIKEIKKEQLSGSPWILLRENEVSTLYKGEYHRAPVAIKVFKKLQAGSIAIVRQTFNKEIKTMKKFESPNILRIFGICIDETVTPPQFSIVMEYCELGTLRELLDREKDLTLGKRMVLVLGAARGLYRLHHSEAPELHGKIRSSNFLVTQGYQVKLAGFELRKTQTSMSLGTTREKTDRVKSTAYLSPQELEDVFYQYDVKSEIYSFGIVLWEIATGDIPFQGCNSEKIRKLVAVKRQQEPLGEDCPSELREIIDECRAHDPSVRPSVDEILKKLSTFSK
Description: Degradation Assay: Screening Compounds Procedure to Evaluate the Activity of Compounds in Degrading Endogenous MLKL in Human and Mouse Cell
The mouse dermal fibroblast (MDF) cell line was seeded the day before the experiment in a 24-well plate at a cell density of […] per well in a volume of 0.5 mL per well and left to attach overnight. The human monocyte cell line (U937) was seeded on the day of the experiment in a 24-well plate at a cell density of […] per well in a volume of 0.5 mL per well.
The compound was diluted in DMSO with a starting concentration of 10 mM and titrated stepwise with a dilution of 1:5. 0.5 μL of the compound dilution was added to the appropriate well to achieve a final concentration of 10; 2; 0.4; 0.08 and 0.016 μM. A DMSO only well was included as control.
The cells were incubated for 24 h in the presence of the compound at 37° C. and 10% CO2.
After the 24 h incubation period, the medium was removed and cells washed with 0.5 mL PBS. The cells were then lysed directly in 60 μL of 1×SDS gel loading buffer.
The cell lysate was heat-denatured at […] for 10 min. 10 μL of lysate per well were run on 18-well 4-15% Criterion TGX stain free gels (BIO-RAD). The proteins were then transferred onto nitrocellulose membrane with a wet transfer protocol in the Criterion Blotter (BIO-RAD).
Membranes were blocked with 5% skim milk in TBST. Primary antibody against MLKL (clone 3H1, MABC604 Merck) was used at 1:2000 dilution in TBST with 1% BSA and left shaking over night at 4° C. After washes with TBST, the membranes were incubated with goat anti-rat IgG HRP-conjugated antibody (Southern Biotech) in 1% skim milk TBST at 1:10000 dilution for 1 h at room temperature. After TBST washes the bands were imaged on the ChemiDoc MP Imaging System (BIO-RAD) with Immobilion Western Chemiluminescent HRP Substrate Forte (Millipore). The loading control GAPDH was probed for with rabbit anti-GAPDH (CST 14C10) at 1:2000 dilution in 1% BSA TBST over night at 4° C. TBST washes were followed by incubation with goat anti-rabbit IgG HRP-conjugated antibody (Southern Biotech) in 1% skim milk TBST at 1:10000 dilution for 1 h at room temperature followed by TBST washes. The signal was detected as described above.
The band intensity was measured in the ImageLab Software (BIO-RAD) and the MLKL values adjusted for loading with GAPDH. The percentage of degradation was calculated by normalizing the compound treated values to the DMSO only control.

[4] = target: endogenous MLKL in MDF (Mus musculus (Mouse), UniProt Q9D2Y4); assay: Degradation assay: endogenous MLKL in MDF (western blot); details: MDF cells, 24 h incubation with compound, MLKL adjusted for loading with GAPDH, normalized to DMSO only control, read-out: Degradation of endogenous MLKL in MDF (DC50 cell-based assay)
Chain of endogenous MLKL in MDF (Q9D2Y4 whole entry): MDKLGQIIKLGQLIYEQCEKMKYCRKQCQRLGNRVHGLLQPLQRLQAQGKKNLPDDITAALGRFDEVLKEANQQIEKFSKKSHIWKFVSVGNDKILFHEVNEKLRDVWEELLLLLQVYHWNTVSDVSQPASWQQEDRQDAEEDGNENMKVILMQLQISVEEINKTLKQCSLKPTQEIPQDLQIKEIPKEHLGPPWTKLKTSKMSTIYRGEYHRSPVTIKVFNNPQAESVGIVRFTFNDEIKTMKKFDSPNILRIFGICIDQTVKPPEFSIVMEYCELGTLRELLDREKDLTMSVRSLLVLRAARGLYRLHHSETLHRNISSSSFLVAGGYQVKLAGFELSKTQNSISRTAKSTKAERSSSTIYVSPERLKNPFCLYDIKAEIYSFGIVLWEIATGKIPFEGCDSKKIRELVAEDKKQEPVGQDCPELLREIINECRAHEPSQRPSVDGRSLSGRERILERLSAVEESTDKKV
Method in brief: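 MDF (seeded the day before) or U937 cells were treated 24 h at 37 °C, 10% CO2 with compound at 10, 2, 0.4, 0.08 and 0.016 μM final. Endogenous MLKL was quantified by western blot (anti-MLKL 3H1), normalized to GAPDH. Percent degradation was taken relative to DMSO control.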

Chain of human MLKL (full length) (Q8NB16 whole entry): as the sequence (Q8NB16 whole entry) above

**Q.** Which Kd [1] does the source give for C[C@H](Oc1cc(-c2nn(C)c3c(-c4cnn(C5CCN(C(=O)COc6cccc7c6C(=O)N(C6CCC(=O)NC6=O)C7=O)CC5)c4)cnc(N)c23)ccc1NS(=O)(=O)C(F)F)c1ccc(F)cc1 (stereo partly drawn) [Compound 1082, N-[4-(4-amino-7-{1-[1-(2-{[2-(2,6-dioxopiperidin-3-yl)-1,3-dioxo-2,3-dihydro-1H-isoindol-4-yl]oxy}acetyl)piperidin-4-yl]-1H-pyrazol-4-yl}-1-methyl-1H-pyrazolo[4,3-c]pyridin-3-yl)-^2-[(1S)-1-(4-fluorophenyl)ethoxy]phenyl]-1,1-difluoromethanesulfonamide] here?
**A.** < 10 nM

**Q.** And the IC50 [2]?
**A.** 1000 to 10000 nM

**Q.** What about the DC50 [3] of the same molecule?
**A.** < 1000 nM

**Q.** What about the DC50 [4] of the same molecule?
**A.** 1000 to 10000 nM

**Q.** With Cc1ncsc1-c1ccc(CNC(=O)[C@@H]2C[C@@H](O)CN2C(=O)[C@@H](NC(=O)CCCCCOc2ccc(-c3cnc(N)c4c(-c5ccc(NS(=O)(=O)C(F)F)c(O[C@@H](C)c6ccc(F)cc6)c5)nn(C)c34)cn2)C(C)(C)C)cc1 [Compound 1050, (2S,4R)-1-[(2S)-2-{6-[(5-{4-amino-3-[4-(difluoromethanesulfonamido)-3-[(1S)-1-(4-fluorophenyl)ethoxy]phenyl]-1-methyl-1H-pyrazolo[4,3-c]pyridin-7-yl}pyridin-2-yl)oxy]hexanamido}-3,3-dimethylbutanoyl]-4-hydroxy-N-{[4-(4-methyl-1,3-thiazol-5-yl)phenyl]methyl}pyrrolidine-2-carboxamide] as the molecule, how does the Kd [1] read?
**A.** 10 to 1000 nM

**Q.** And the DC50 [3]?
**A.** < 1000 nM

**Q.** What about the DC50 [4] of the same molecule?
**A.** 1000 to 10000 nM

**Q.** Which results are given for Cc1ncsc1-c1ccc(CNC(=O)[C@@H]2C[C@@H](O)CN2C(=O)[C@@H](NC(=O)COCCCCn2cc(-c3cnc(N)c4c(-c5ccc(NS(=O)(=O)C(F)F)c(O[C@@H](C)c6ccc(F)cc6)c5)nn(C)c34)cn2)C(C)(C)C)cc1 [Compound 1056, (2S,4R)-1-[(2S)-2-{2-[4-(4-{4-amino-3-[4-(difluoromethanesulfonamido)-3-[(1S)-1-(4-fluorophenyl)ethoxy]phenyl]-1-methyl-1H-pyrazolo[4,3-c]pyridin-7-yl}-1H-pyrazol-1-yl)butoxy]acetamido}-3,3-dimethylbutanoyl]-4-hydroxy-N-{[4-(4-methyl-1,3-thiazol-5-yl)phenyl]methyl}pyrrolidine-2-carboxamide]?
**A.** Kd [1]: 10 to 1000 nM; DC50 [3]: < 1000 nM; DC50 [4]: 1000 to 10000 nM

**Q.** What does the source list for Cn1nc(-c2ccc(NS(=O)(=O)C(F)F)c(F)c2)c2c(N)ncc(-c3cnn(C4CCN(C(=O)[C@H]5C[C@H](Nc6cccc7c6C(=O)N(C6CCC(=O)NC6=O)C7=O)C5)CC4)c3)c21 (stereo partly drawn) [Compound 1114, N-{4-[4-amino-1-methyl-7-(1-{1-[(trans)-3-{[2-(2,6-dioxopiperidin-3-yl)-1,3-dioxo-2,3-dihydro-1H-isoindol-4-yl]amino}cyclobutanecarbonyl]piperidin-4-yl}-1H-pyrazol-4-yl)-1H-pyrazolo[4,3-c]pyridin-3-yl]-2-fluorophenyl}-1,1-difluoromethanesulfonamide]?
**A.** Kd [1]: < 10 nM; DC50 [3]: < 1000 nM; DC50 [4]: < 1000 nM

**Q.** How did the IC50 [2] turn out when C[C@H](Oc1cc(-c2nn(C)c3c(-c4cnn(C5CCN(C(=O)N6CC(Nc7cccc8c7C(=O)N(C7CCC(=O)NC7=O)C8=O)C6)CC5)c4)cnc(N)c23)ccc1NS(=O)(=O)C(F)F)c1ccc(F)cc1 (stereo partly drawn) [Compound 1124, N-[4-(4-amino-7-{1-[1-(3-{[2-(2,6-dioxopiperidin-3-yl)-1,3-dioxo-2,3-dihydro-1H-isoindol-4-yl]amino}azetidine-1-carbonyl)piperidin-4-yl]-1H-pyrazol-4-yl}-1-methyl-1H-pyrazolo[4,3-c]pyridin-3-yl}-2-[(1S)-1-(4-fluorophenyl)ethoxy]phenyl]-1,1-difluoromethanesulfonamide] was run?
**A.** < 1000 nM

**Q.** What about the DC50 [3] of the same molecule?
**A.** < 1000 nM

**Q.** And the DC50 [4]?
**A.** < 1000 nM

**Q.** How did the IC50 [2] turn out when C[C@H](Oc1cc(-c2nn(C)c3c(-c4cnn(C5CCN(C(=O)C6CCCN(c7cccc8c7C(=O)N(C7CCC(=O)NC7=O)C8=O)C6)CC5)c4)cnc(N)c23)ccc1NS(=O)(=O)C(F)F)c1ccc(F)cc1 (stereo partly drawn) [Compound 1077, N-(4-{4-amino-7-[1-(1-{1-[2-(2,6-dioxopiperidin-3-yl)-1,3-dioxo-2,3-dihydro-1H-isoindol-4-yl]piperidine-3-carbonyl}piperidin-4-yl)-1H-pyrazol-4-yl]-1-methyl-1H-pyrazolo[4,3-c]pyridin-3-yl}-2-[(1S)-1-(4-fluorophenyl)ethoxy]phenyl)-1,1-difluoromethane-sulfonamide] was run?
**A.** 1000 to 10000 nM

**Q.** And the DC50 [3]?
**A.** 1000 to 10000 nM

**Q.** With CCS(=O)(=O)Nc1ccc(-c2nn(C)c3c(-c4cnn(CCCCCCCOc5cccc6c5C(=O)N(C5CCC(=O)NC5=O)C6=O)c4)cnc(N)c23)cc1F (centres unmarked) [Compound 1059, N-(4-{4-amino-7-[1-(7-{[2-(2,6-dioxopiperidin-3-yl)-1,3-dioxo-2,3-dihydro-1H-isoindol-4-yl]oxy}heptyl)-1H-pyrazol-4-yl]-1-methyl-1H-pyrazolo[4,3-c]pyridin-3-yl}-2-fluorophenyl)ethane-1-sulfonamide] as the molecule, how does the Kd [1] read?
**A.** < 10 nM

**Q.** What about the DC50 [3] of the same molecule?
**A.** < 1000 nM

**Q.** And the DC50 [4]?
**A.** < 1000 nM

**Q.** Which results are given for Cc1ncsc1-c1ccc(C(COCC(=O)N2CCC(n3cc(-c4cnc(N)c5c(-c6ccc(NS(=O)(=O)C(F)F)c(O[C@@H](C)c7ccc(F)cc7)c6)nn(C)c45)cn3)CC2)NC(=O)[C@@H]2C[C@@H](O)CN2C(=O)[C@@H](NC(=O)C2(F)CC2)C(C)(C)C)cc1 (stereo partly drawn) [Compound 1104, (2S,4R)—N-(2-{2-[4-(4-{4-amino-3-[4-(difluoromethanesulfonamido)-3-[(1 S)-1-(4-fluorophenyl)ethoxy]phenyl]-1-methyl-1H-pyrazolo[4,3-c]pyridin-7-yl}-1H-pyrazol-1-yl)piperidin-1-yl]-2-oxoethoxy}-1-[4-(4-methyl-1,3-thiazol-5-yl)phenyl]ethyl)-1-[(2S)-2-[(1-fluorocyclopropyl)formamido]-3,3-dimethylbutanoyl]-4-hydroxypyrrolidine-2-carboxamide]?
**A.** IC50 [2]: 1000 to 10000 nM; DC50 [3]: < 1000 nM; DC50 [4]: < 1000 nM

**Q.** Cc1ncsc1-c1ccc(CNC(=O)[C@@H]2C[C@@H](O)CN2C(=O)[C@@H](NC(=O)C2(F)CC2)C(C)(C)C)c(OCCCCCCCCCn2cc(-c3cnc(N)c4c(-c5ccc(NS(=O)(=O)C(F)F)c(O[C@@H](C)c6ccc(F)cc6)c5)nn(C)c34)cn2)c1 [Compound 1041, (2S,4R)-N-[(2-{[9-(4-{4-amino-3-[4-(difluoromethanesulfonamido)-3-[(1S)-1-(4-fluorophenyl)ethoxy]phenyl]-1-methyl-1H-pyrazolo[4,3-c]pyridin-7-yl}-1H-pyrazol-1-yl)nonyl]oxy}-4-(4-methyl-1,3-thiazol-5-yl)phenyl)methyl]-1-[(2S)-2-[(1-fluorocyclopropyl)formamido]-3,3-dimethylbutanoyl]-4-hydroxypyrrolidine-2-carboxamide] was tested. Which Kd [1] did it give?
**A.** 10 to 1000 nM

**Q.** What about the DC50 [3] of the same molecule?
**A.** 1000 to 10000 nM

**Q.** And the DC50 [4]?
**A.** < 1000 nM

**Q.** For Cc1ncsc1-c1ccc(CNC(=O)[C@@H]2C[C@@H](O)CN2C(=O)[C@@H](NC(=O)CCCCCCC#Cc2cnc(N)c3c(-c4ccc(NS(=O)(=O)C(F)F)c(F)c4)nn(C)c23)C(C)(C)C)cc1 [Compound 1052, (2S,4R)-1-[(2S)-2-(9-{4-amino-3-[4-(difluoromethanesulfonamido)-3-fluorophenyl]-1-methyl-1H-pyrazolo[4,3-c]pyridin-7-yl}non-8-ynamido)-3,3-dimethylbutanoyl]-4-hydroxy-N-{[4-(4-methyl-1,3-thiazol-5-yl)phenyl]methyl}pyrrolidine-2-carboxamide], which Kd [1] is on record?
**A.** 10 to 1000 nM

**Q.** And the DC50 [3]?
**A.** 1000 to 10000 nM
